Key:
Format in all cases: in vivo
[1] = test system: breast cancer 4T1 cells; test: Extra-tumoral local administration in 4T1 tumor-bearing BALB/c mice, R7d/R21d (Example 11, Table 17); settings: subaxillary intradermal (extra-tumoral), twice at 7-day interval, 120 μl/mouse/time; for R7 d (relative tumor proliferation rate): day 7 after last dose; for R21 d (relative tumor proliferation rate): day 21 after last dose
Protocol: (§1) V=0.5×a×b^2, wherein a and b represent the length and width of the local lesion, respectively; Volume of the local lesion (e.g. tumor):
(§2) Local lesion (e.g., tumor) proliferation rate (R)=TV/CV×100, wherein TV and CV are the local lesion volumes in the study group and negative control group, respectively;
(§3) In the following examples of the present invention, the combinational pharmaceutical efficacies (drug efficacies) of drug A and drug B co-administration was determined by ratio q of actual pharmaceutical efficacy (drug efficacy)/theoretical pharmaceutical efficacy (drug efficacy) according to Zhengjun JIN method, as follows.
BALB/c mice were used as experimental subjects, and breast cancer 4T1 cells were used as modeling cells. 0.25×10^5 cells/mouse were injected into the right axilla subcutaneously for transplantation tumor modeling. On the 5th day after modeling, the test animals with visually obvious tumors were randomly divided into 12 groups, having 10 animals in each group. […] In groups 1-11, on days 7 and 21 after the last dose the tumor volume (V7d, V21d) were measured, and the relative tumor proliferation rates (R7d, R21d) were calculated relative to the negative control group on days 7 and 21 after the dose, so that the short-term therapeutic effectiveness (100%−R7d) and the medium- and long-term therapeutic effectiveness (100%−R21d) could be calculated, respectively. Further, based on the short-term therapeutic effectiveness and the medium- and long-term therapeutic effectiveness, the actual/expected ratio for short-term pharmaceutical efficacies q7d and the actual/expected ratio for medium- and long-term pharmaceutical efficacies q21d were calculated respectively.

[2] = test system: human hepatoma cells (HepG2); test: Tumor inhibition in HepG2 tumor-bearing nude mice, probiotic component/lysine (Example 7, Table 12); settings: dosed twice, interval 7 days, 7th day after final administration, probiotic component = supernatant component of disrupted Saccharomyces cerevisiae
Protocol: as §3
Nude mice were used as experimental subjects, and human hepatoma cells (HepG2) were used as modeling cells. […] The model animals were randomly divided into 13 groups, and the drugs were administered according to Table 12. […] Each group was dosed twice at an interval of 7 days with an injection volume of […]. On the 7th day after final administration, the animals were euthanized, and the tumor tissues were taken out after dissection to determine the tumor weight, and the tumor inhibition rate was calculated relative to the negative control group.

[3] = test system: human pancreatic cancer cells (PANC-1); test: Tumor inhibition in PANC-1 tumor-bearing nude mice, probiotic component/gemcitabine (Example 7, Table 13); settings: dosed once, 100 μl/mouse/time, 7th day, probiotic component = supernatant component of disrupted Saccharomyces cerevisiae
Text: The method for determining the effect of combined drug administration in animal experiments was Burgi method (Burgi Y. Pharmacology; Drug actions and reactions. […] The Burgi method was modified by Zhengjun JIN (Zhengjun JIN, Equal probability and curve and “Q50”, Journal of the Second Shanghai Medical College; 1981, 1, 75-86) with q calculated as: q=EA+B/(EA+EB-EA×EB). In the following examples of the present invention, the combinational pharmaceutical efficacies (drug efficacies) of drug A and drug B co-administration was determined by ratio q of actual pharmaceutical efficacy (drug efficacy)/theoretical pharmaceutical efficacy (drug efficacy) according to Zhengjun JIN method, as follows. […] The model animals were randomly divided into 13 groups, and the drugs were administered according to Table 13.

[4] = test system: lung tumor cells (A549); test: Tumor inhibition in A549 tumor-bearing nude mice, co-administration (Example 5, Table 7); settings: dosed once, 7th day, probiotic component = heat-inactivated Saccharomyces boulardii
Text: (§4) The method for determining the effect of combined drug administration in animal experiments was Burgi method (Burgi Y. Pharmacology; Drug actions and reactions. Cancerres. 1978, 38(2), 284-285). The Burgi method was modified by Zhengjun JIN (Zhengjun JIN, Equal probability and curve and “Q50”, Journal of the Second Shanghai Medical College; 1981, 1, 75-86) with q calculated as: q=EA+B/(EA+EB−EA×EB). In the following examples of the present invention, the combinational pharmaceutical efficacies (drug efficacies) of drug A and drug B co-administration was determined by ratio q of actual pharmaceutical efficacy (drug efficacy)/theoretical pharmaceutical efficacy (drug efficacy) according to Zhengjun JIN method, as follows.
Nude mice were used as experimental subjects, and lung tumor cells (A549) were used as modeling cells, 1×10^5 cells/mouse were injected into the right axilla subcutaneously for transplantation tumor modeling, and the average tumor volume of successfully modeled nude mice was 153.7 mm^3. The model animals were randomly divided into 18 groups, and the drugs were administered according to the drug components and administration route in Table 7. Each group was dosed once with an injection volume of […]. Wherein, the probiotic component was heat-inactivated Saccharomyces boulardii, and the administration route of group 16 was intra-tumoral injection of probiotic component followed by intra-tumoral injection of 10% arginine about 2 hours later. On the 7th day after drug administration, the animals were euthanized, and after dissection, the tumor tissue was taken out to determine the tumor weight, and the tumor inhibition rate (r) was calculated relative to the negative control group. Further, the actual efficacy/expected efficacy ratio q of a drug could also be calculated according to the therapeutic effect (tumor inhibition rate).

[5] = test system: breast cancer 4T1 cells; test: Short- and medium/long-term relative tumor proliferation rate in 4T1 tumor-bearing BALB/c mice (Example 10, Table 16); settings: intratumoral injection, dosed twice at interval of 7 days, 100 μl/mouse/time
Text: as §1, §2, §4
BALB/c mice were used as experimental subjects, and breast cancer 4T1 cells were used as modeling cells. 0.5×10^6 cells/mouse were injected into the right axilla subcutaneously for transplantation tumor modeling, and the average tumor volume of successfully modeled nude mice was 107.4 mm^3. The model animals were randomly divided into 17 groups.
The drugs, formulated according to the method of Example 1, were administered according to Table 16. Each group was dosed twice with an interval of 7 days, and the injection volumes were 300 μl/mouse/time for groups 13 and 14, 100 μl/mouse/time for other groups. The drugs were administered by subaxillary administration of the right forelimb for group 15, and by intratumoral injection for other groups. Group 16 was administered sequentially (the first dose was aprobiotic semi-fluid-like component/cytotoxic drug/weak local acting compound, and the last dose was inactivated probiotics), while the other groups were administered with the same drug twice. On days 7 and 21 after the last dose, the tumor volumes of each group were measured (V7d, V21d), and the relative tumor proliferation rates (R7d, R21d) were calculated relative to the negative control group, respectively, so that the short-term therapeutic effectiveness (100%−R7d) and the medium- and long-term therapeutic effectiveness (100%−R21d) could be calculated, respectively.

[6] = test system: human liver cancer HepG2 cells; test: Tumor inhibition in HepG2 tumor-bearing nude mice (Example 2, Table 4); settings: dosed once, 150 μl/mouse; for Tumor weight (x ± s): 7th day after administration; for Tumor inhibition rate r: 7th day, relative to negative control
Protocol: The tumor-bearing nude mice were widely used for drug studies on chemotherapy rather than immunotherapy in patients with solid tumors. Taking nude mice as experimental subjects, human liver cancer HepG2 cells were used as modeling cells, and 1×10^5 cells/mouse were injected into the right axilla subcutaneously for transplantation tumor modeling, and the average tumor volume of successfully modeled nude mice was 161.3 mm^3. The model animals were randomly divided into 17 groups. The drugs were administered according to the drug and dosing method in Table 4. Each group was dosed once with an injection volume of 150 μl/mouse. On the 7th day after drug administration, the animals were euthanized, and after dissection, the tumor tissue was taken out to determine the tumor weight, and the tumor inhibition rate (r) was calculated relative to the negative control group.

[7] = test system: breast cancer 4T1 cells; test: Short-term tumor inhibition in 4T1 tumor-bearing BALB/c mice (Example 9, Table 14); settings: dosed twice, 7th day after final administration
Text: as §4
BALB/c mice were used as experimental subjects, and breast cancer 4T1 cells were used as modeling cells. 0.5×10^6 cells/mouse were injected into the right axilla subcutaneously for transplantation tumor modeling, and the average tumor volume of successfully modeled nude mice was 160.1 mm^3. The model animals were randomly divided into 21 groups, and the drugs were administered by intravenous injection (series A) and intratumoral injection (series B) according to the drugs and doses in Table 14, respectively. All the drugs administered were aqueous liquids, which were formulated according to the method of Example 1. Each group was dosed twice. On the 7th day after final administration, the animals were euthanized, and the tumor tissues were taken out after dissection to determine the tumor weight, and the tumor inhibition rates rA and rB were calculated relative to the corresponding negative control groups in series A and series B.

[8] = listed as 20% lysine, 20% lysine
[9] = intratumoral injection, '+' = arginine injected about 2 hours later

`NCCCC[C@H](N)C(=O)O` [25% lysine, lysine] was tested, and the “R7 d (relative tumor proliferation rate)” value [1] was 96%, the “R21 d (relative tumor proliferation rate)” value [1] was 102% and the Tumor inhibition rate [2] was 54.1%. The “Tumor weight (x ± s)” value [2] was 0.109 ± 0.074 g, the Tumor inhibition rate ([2]; 5% lysine) was 11.3% and the “Tumor weight (x ± s)” value ([2]; 5% lysine) was 0.211 ± 0.091 g. For the same molecule, the Tumor inhibition rate ([2]; listed as 1% lysine, 1% lysine) was 5.2%, the “Tumor weight (x ± s)” value ([2]; listed as 1% lysine, 1% lysine) was 0.226 ± 0.112 g and the Tumor inhibition rate [2, 8] was 43.6%. The “Tumor weight (x ± s)” value [2, 8] was 0.134 ± 0.073 g.

For `Nc1ccn([C@@H]2O[C@H](CO)[C@@H](O)C2(F)F)c(=O)n1` [5% gemcitabine, gemcitabine], the Tumor inhibition rate [3] was 35.1%, the “Tumor weight (x ± s)” value [3] was 0.191 ± 0.077 g and the Tumor inhibition rate ([3]; listed as 0.05% gemcitabine) was 5.6%. For the same molecule, the Tumor inhibition rate ([3]; listed as 0.1% gemcitabine) was 7.8%, the Tumor inhibition rate ([3]; listed as […] gemcitabine) was 30.4% and the “Tumor weight (x ± s)” value ([3]; listed as […] gemcitabine) was 0.204 ± 0.103 g.

For `N=C(N)NCCC[C@H](N)C(=O)O` [10% arginine, arginine], the “Tumor inhibition rate r” value [4, 9] was 24.7%, the “Tumor weight (x ± s)” value [4, 9] was 0.164 ± 0.061 g and the “Tumor inhibition rate r” value ([4]; intravenous injection) was 6.4%. For the same molecule, the “Tumor weight (x ± s)” value ([4]; intravenous injection) was 0.196 ± 0.077 g.

B1: interleukin-12 (protein, UniProt P29459 23-219; P29460 23-328, looked up)
Interleukin-12 subunit alpha: RNLPVATPDPGMFPCLHHSQNLLRAVSNMLQKARQTLEFYPCTSEEIDHEDITKDKTSTVEACLPLELTKNESCLNSRETSFITNGSCLASRKTSFMMALCLSSIYEDLKMYQVEFKTMNAKLLMDPKRQIFLDQNMLAVIDELMQALNFNSETVPQKSSLEEPDFYKTKIKLCILLHAFRIRAVTIDRVMSYLNAS
Interleukin-12 subunit beta: IWELKKDVYVVELDWYPDAPGEMVVLTCDTPEEDGITWTLDQSSEVLGSGKTLTIQVKEFGDAGQYTCHKGGEVLSHSLLLLHKKEDGIWSTDILKDQKEPKNKTFLRCEAKNYSGRFTCWWLTTISTDLTFSVKSSRGSSDPQGVTCGAATLSAERVRGDNKEYEYSVECQEDSACPAAEESLPIEVMVDAVHKLKYENYTSSFFIRDIIKPDPPKNLQLKPLKNSRQVEVSWEYPDTWSTPHSYFSLTFCVQVQGKSKREKKDRVFTDKTSATVICRKNASISVRAQDRYYSSSWSEWASVPCS
notes: immunoenhancement control
With B1 the “relative tumor proliferation rate R7 d” value ([5]; day 7 after last dose) was 95%, the “relative tumor proliferation rate R21 d” value ([5]; day 21 after last dose) was 96% and the “R7 d (relative tumor proliferation rate)” value [1] was 99%. For the same molecule, the “R21 d (relative tumor proliferation rate)” value [1] was 97%, the “Tumor weight (x ± s)” value ([6]; intratumoral injection) was 0.241 ± 0.111 g and the “Tumor inhibition rate r” value ([6]; intratumoral injection) was 8.1%. For the same molecule, the “Tumor weight (x ± s)” value ([6]; intravenous injection) was 0.230 ± 0.102 g, the “Tumor inhibition rate r” value ([6]; intravenous injection) was 4.7% and the “tumor inhibition rate rA” value ([7]; series A: intravenous injection) was 5.3%. For the same molecule, the “tumor inhibition rate rB” value ([7]; series B: intratumoral injection) was 4.6%.

From patent US20230405063A1, “USE OF PROBIOTIC COMPONENT AND PHARMACEUTICAL COMPOSITION CONTAINING PROBIOTIC COMPONENT” (CHENGDU KUACHANGAOPU MEDICAL TECHNOLOGY CO., LTD., priority 2020, published 2023)
